Experimental findings from patent US20160272937A1, “METHODS OF GENERATING INTERMEDIATE MESODERM CELLS FROM HUMAN PLURIPOTENT STEM CELLS” (THE BRIGHAM AND WOMEN'S HOSPITAL, INC., priority 2013, published 2016) are described below.

Experiment [1] has as its system human pluripotent stem cells (hPSCs). Put plainly: Spontaneous differentiation of CHIR-induced mesendodermal cells after CHIR withdrawal, marker immunocytochemistry. The experiment is classed as cell-based. As to conditions: day 4. How it is done: Mesendoderm differentiation—the media is changed to Advanced RPMI (A-RPMI, Invitrogen) supplemented with 1×L-glutamax and 1× penicillin/streptomycin and either CHIR99021 (CHIR, Stemgent), human Wnt3a (R&D systems), and/or human activin A (R&D systems) at the doses described. Definitive endoderm differentiation—cells are treated with A-RPMI+1×L-glu+1×P/S+5 μM CHIR for 24 hours, then A-RPMI+1×Lglu+1×P/S+100 ng/mL of activin A for 2-3 days. Hepatic differentiation—cells at the definitive endoderm stage are treated with A-RPMI+1×L-glu+1×P/S+1×B27 supplement (Invitrogen)+20 ng/mL BMP-4 (R&D systems)+10 ng/mL FGF2 (Invitrogen) for 5 days, then A-RPMI+1×L-glu+1×P/S+1×B27+10 ng/mL HGF for 5 days, then HCM Hepatocyte Culture Medium (Lonza) supplemented with 20 ng/mL Oncostatin M and 10 ng/mL HGF (Peprotech) for 5 days. Pancreatic differentiation—cells at the definitive endoderm stage are treated with DMEM/F12+2% FBS (Hyclone)+50 ng/mL FGF7 (R&D systems) for 2 days, then high-glucose DMEM (Mediatech)+1% B27+2 μM retinoic acid (Sigma)+0.25 μM KAAD cyclopamine (EMD Millipore)+100 ng/mL recombinant human Noggin (R&D systems) for 4 days, then high-glucose DMEM+1% B27+100 ng/mL Noggin+300 nM indolactam V (Stemgent)+1 μM ALK5 inhibitor II (Axxora) for 4 days. Anterior foregut endoderm differentiation—cells at the definitive endoderm stage are treated with DMEM/F12+1×L-glu+1×B27+200 ng/mL Noggin+10 μM SB431542 (Stemgent) for 3 days. For hindgut endoderm differentiation, cells at the definitive endoderm stage were treated with A-RPMI+1×L-glu+1×P/S+2% FBS+500 ng/mL FGF4 (R&D systems)+5 μM CHIR for 4 days. […] Intermediate mesoderm differentiation—cells are treated with A-RPMI+1×L-glu+1×P/S+5 μM CHIR for 24, 36, or 48 hours, then A-RPMI+1×L-glu+1×P/S+100 ng/mL FGF2+1 μM retinoic acid for 2-3 days. Cap mesenchyme differentiation—cells were treated with A-RPMI+13 L-glu+13 P/S+[…] CHIR for 36 hours, then A-RPMI+13 L-glu+13 P/S+100 ng/ml FGF2+1 mM retinoic acid for 36-42 hours, then A-RPMI+13L-glu+13P/S+100 ng/ml FGF-9 (R&D Systems)+10 ng/ml activin A for 3 days.
For immunofluorescence studies, cultures are washed once with PBS (Invitrogen) and fixed in 4% paraformaldehyde for 15 min at room temperature (RT). Fixed cells are then washed three times in PBS and incubated in blocking buffer (0.3% Triton X-100 (Fisher Scientific) and 5% normal donkey serum (EMD Millipore) in PBS) for 1 hour at RT.
The cells are then incubated with primary antibody overnight at 4° C. or for 2 hours at RT in antibody dilution buffer (0.3% Triton X-100 and 1% BSA (Roche) in PBS). Cells are then washed three times in PBS and incubated with Alexa Fluor 488-, 555-, or 647-conjugated secondary antibodies (1:500) (Molecular Probes) in antibody dilution buffer for 1 hour at RT. For immunostaining with Biotinylated Lotus Tetragonolobus Lectin (LTL, Vector Labs), a Streptavidin/Biotin Blocking Kit (Vector Labs) and Alexa Fluor 488- or 647-conjugated Streptavidin (Molecular Probes) were used according to manufacturer's instructions.
Nuclei can be counterstained with DAPI (Sigma). […] Immunofluorescence is visualized using an inverted fluorescence microscope (Nikon Eclipse Ti, Tokyo, Japan). Quantification is performed by counting a minimum of five random fields at 10× magnification.
To determine whether treatment with CHIR alone is sufficient to induce differentiation towards IM, the Inventors investigated the intrinsic multipotency of CHIR-induced mesendodermal cells by withdrawing CHIR from the culture media after either 24 or 48 hours of induction and allowing the cells to differentiate for another 3-4 days (FIG. 2A).

For experiment [2] the test system is unchanged. Put plainly: Quantitative RT-PCR gene expression in CHIR-treated hPSCs. The experiment is classed as cell-based. The method, then: Total RNA is harvested and isolated from cells using the RNeasy Mini Kit (Qiagen). 1 μg RNA is used for reverse transcription with the M-MLV Reverse Transcriptase system (Promega), or 500 ng RNA is used for High Capacity cDNA Reverse Transcription Kits (Applied Biosystems). RT-PCR reactions can be run in duplicate using cDNA (diluted 1:10), 300 or 400 nM forward and reverse primers, and iQ SYBR Green Supermix (Biorad) or iTAQ SYBR Green Supermix (Biorad). Quantitative RT-PCR is performed using the iQ5 Multicolor Real-Time PCR Detection System (Biorad). Samples can be run with two technical replicates to ensure precision and accuracy. β-actin can be used as a housekeeping gene. […] In parallel, the induction of the mesendoderm state was accompanied by the loss of pluripotency as reflected by a reduction of OCT4 and NANOG mRNA (FIG. 1D). […] As cells migrate through the primitive streak during development, they express SNAIL, downregulate E-cadherin expression, upregulate N-cadherin expression, and undergo an epithelial-mesenchymal transition (“EMT”). […] This was associated with EMT with waves of cells migrating away from the periphery of differentiating colonies between 36-48 hours of differentiation (FIG. 1G), and a switch in cadherin expression from E-cadherin to N-cadherin (FIG. 1H).

Setting [3] is: CHIR pulse 24 hours then withdrawal.

Molecules are shown by their SMILES.

As for `Cc1c[nH]c(-c2cnc(NCCNc3ccc(C#N)cn3)nc2-c2ccc(Cl)cc2Cl)n1` [CHIR99021], in experiment [1] (setting [3]), the “FOXF1+ lateral plate mesoderm cells” value is “approximately 40%” and the “cells expressing pluripotency marker OCT4” value was 30-40%. Moreover, in experiment [1] (CHIR treatment 48 hours), the “appearance of OCT4+ cells” value is recorded as “eliminated the appearance of OCT4+ cells” and the “cells staining positive for FOXF1” value is recorded as “greater than 80%”. In addition, in experiment [1] (CHIR treatment alone), the “cells expressing PAX6” value is less than 1%, the “cells expressing SOX17” value is less than 1%, the “cells with protein expression of IM marker PAX2” value is reported as less than 1% and the “cells with protein expression of paraxial mesoderm marker TBX6” value was less than 10%. Also, the BMP-4 transcript expression entry in experiment [2] (CHIR for 24 or 48 hours, day 4, compared to DMSO-treated controls) is recorded as “significantly upregulated”. Moreover, in experiment [2] (CHIR time course), the “OCT4 and NANOG mRNA” value was “reduction”. The SNAI1 expression entry in experiment [2] (as early as 24 hours after treatment) was “upregulation”. For the same molecule, the “expression of primitive streak genes (BRACHY, MIXL1, EOMES, FOXA2, GSC)” value in experiment [2] (within 24 hours of treatment, peak 36-48 hours, decreased by 72 hours) is listed as “rapidly upregulated”.
